Here are results for 3 molecules from patent US12624012B2, “14-chloro-β-elemene nitric oxide donor derivative and preparation method and use thereof” (HANGZHOU NORMAL UNIVERSITY, priority 2021, dated 2026).

The test system of one data set is U87MG. Nature of the data set: In vitro anti-tumor activity evaluation test (CCK-8), U87MG. In kind it is cell-based, human. Particulars: U87MG, 72 h; for IC50: read-out: IC50 against different tumor cell lines; for inhibition at 1 µM: read-out: Inhibitory rates against tumor cell lines. The procedure, abridged:
(§1)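 H520 and SW620 seeded at 5.0×10^4 cells/mL, U87MG at 3.5×10^4 cells/mL, grown 24 h, then exposed to drug for 72 h at 37 °C, 5% CO2. Viability by CCK-8 (2-3 h), OD at 450 nm; growth inhibitory rates converted to IC50.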

Another data set relates to SW620. Nature of the data set: In vitro anti-tumor activity evaluation test (CCK-8), SW620. Format: cell-based, human. To be noted: SW620, 72 h; for IC50: read-out: IC50 against different tumor cell lines; for inhibition at 1 µM: read-out: Inhibitory rates against tumor cell lines. The procedure, abridged: as §1
The subject of data set [1] is human brain glioma U87MG-LUC. Nature of the data set: In vivo anti-tumor activity against malignant brain glioma (in situ U87MG-LUC model). On the set-up: species or system BABLc/nude mice. Particulars: for growth of malignant brain gliomas in mice: after administration for 3 weeks; for brain weight / living and physical conditions of mice / tumor volume / bioluminescence signal intensity of gliomas: versus model group; for bioluminescence signal intensity of gliomas: which increases rapidly. An excerpt:
• Source, germ line, strain: BABLc/nude mice, provided by Shanghai Slaughter Laboratory Animal Co., Ltd., China. • Experimental animal production license: SOCK (Shanghai) 2017-0005 • Certificate of Conformity No.: 20170005040021 • Experimental animal use license: SYXK (Su) 2017-0040 • Age: 4-5 weeks • Sex: female • Number of animals: 5 animals per group, 15 animals in total Experimental Instrument: • Small animal in vivo 3D imaging system Spectrum, PerkinElmer
The cultured human brain glioma U87MG-LUC cell suspension with a concentration of 5×10^7 cells/mL was collected and each animal was inoculated in situ with 20 μL of the cell suspension. 10% chloral hydrate was injected intraperitoneally to anesthetize the mice, and the heads of the mice were fixed with a stereotaxic instrument. The skin of the head was disinfected with an alcohol swab. The skin of the head was cut along the direction of midline of the brain at its slightly right. The right hemisphere was taken as the reference point for fontanelle, 2 mm to the right of the midline, and 1 mm in front as the entry point, and the skull was ground open with a micro-abrasive drill. The cells were fully resuspended with a gun head, a syringe was used to extract the cell suspension. A vertical needle fixed by a stereotaxic instrument was used to feed 3.5 mm and quit 0.5 mm, then stood for 1 min and slowly injected the cells. After injection, the needle was stood for 1 min and slowly withdrawn. Alcohol swabs were used to disinfect the skin, and mice were put back into the feeding cages to wake up naturally after suturing the skin with stitches.
After 14 days of cell inoculation, the animals were randomly grouped, with 5 animals in each group. At the same time, each group of nude mice began to administer drugs. The drug administration protocol is shown in the group and drug administration protocol. At the end of the experiment, the nude mice were executed immediately. The brain tissues were surgically stripped, photographed, and weighed.
Two animals in each group were selected and injected intraperitoneally with Luc bioluminescence signal substrate, 100 μL/each animal, before administration, 1 week, 2 weeks, and 3 weeks after drug administration, respectively. 10 min later, the mice were anesthetized with isoflurane and placed on black box loading platform of an instrument for in vivo imaging detection to observe the bioluminescence signal of in situ tumors in mice's brains.

The test system of a further data set is NCI-H520. Nature of the data set: In vitro anti-tumor activity evaluation test (CCK-8), NCI-H520. In kind it is cell-based, human. To be noted: NCI-H520, 72 h; for IC50: read-out: IC50 against different tumor cell lines; for inhibition at 1 µM: read-out: Inhibitory rates against tumor cell lines. In short, it runs like this: as §1
The nature of data set [2]: In vitro NO release test (incubation with L-cysteine, OD at 550 nm). To be noted: 100 μM solution with cysteine solution, 37° C. In short, it runs like this:
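NO release quantified against a sodium nitrite standard curve from OD at 550 nm after colour development (15 min, 37° C). Samples taken at intervals over 120 min at 37° C from equal volumes of 100 μM compound solution (pre-mixing) and cysteine solution.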

The structures appear in SMILES notation. Read-outs that look alike come from different tables or passages of the source.

For orientation: IC50 means the concentration that gives 50% inhibition. As for `C=C[C@]1(C)CC[C@@H](C(=C)C)C[C@H]1C(=C)C` [β-elemene], the “Inhibitory rates against tumor cell lines” value (“Inhibitory rates” for short) in the data set with U87MG (1 μM) was determined as 4.3 ± 2.2%. In addition, in the data set with U87MG, the IC50 is more than 100000 nM. The “Inhibitory rates” value with SW620 (1 μM) was 2.5 ± 4.1%. The IC50 in the data set with SW620 was more than 100000 nM. In addition, in data set [1], the “growth of malignant brain gliomas in mice” value is recorded as “effectively inhibited”; the brain weight entry is “significantly lighter than that of the model group”; the “living and physical conditions of mice” value is reported as “much better than the model group”; the tumor volume result is listed as “significantly smaller than that in the model group”. The “bioluminescence signal intensity of gliomas” value in data set [1] is listed as “declines dramatically”. Further, the “inhibitory activity (bioluminescence signal of glioma)” value in data set [1] (first week of administration) is on record as more than 20%. Further, in the data set on NCI-H520 (1 μM), the “Inhibitory rates” value turned out to be 3.2 ± 0.7%. For the same molecule, the 50% inhibitory concentration (IC50) with NCI-H520 is more than 100000 nM.
Turning to `C=C[C@]1(C)CC[C@@H](C(=C)CN(C)CCOC(=O)CCCC(=O)OCC#CCOc2no[n+]([O-])c2S(=O)(=O)c2ccccc2)C[C@H]1C(=C)CCl` [Example 4], the inhibition at 1 µM in the data set on U87MG (Homo sapiens, U-87 MG, 1 μM) is 55.5 ± 1.9%; with SW620 (Homo sapiens, SW-620, 1 μM), 47.5 ± 3.7%; in the data set on NCI-H520 (Homo sapiens, 1 μM) it was 48.7 ± 2%. Further, the IC50 with U87MG (Homo sapiens, U-87 MG) turned out to be 369 ± 13 nM; in the data set with SW620 (Homo sapiens, SW-620) it was 858 ± 33 nM; in the data set with NCI-H520 (Homo sapiens) it was 719 ± 17 nM. The “growth of malignant brain gliomas in mice” value in data set [1] is recorded as “effectively inhibited”. For the same molecule, the “blocking of tumor growth” value in data set [1] (last week of administration (3 weeks)) was more than 90%. Moreover, the brain weight result in data set [1] is on record as “significantly lighter than that of the model group”. Further, in data set [1], the “living and physical conditions of mice” value is listed as “much better than the model group”. Moreover, the tumor volume entry in data set [1] was “significantly smaller than that in the model group”. In addition, in data set [1], the “bioluminescence signal intensity of gliomas” value is reported as “declines dramatically”. Also, the NO-release concentrations was determined as 12.53 µM in data set [2] (5 min); 14.80 µM in data set [2] (10 min); 19.55 µM in data set [2] (20 min); 23.6 µM in data set [2] (30 min); 42.31 µM in data set [2] (60 min); 66.97 µM in data set [2] (90 min). Further, the NO-release concentrations in data set [2] (120 min) amounted to 93.18 µM.
Turning to `C=C[C@]1(C)CC[C@@H](C(=C)CN(CCOC(=O)CCC(=O)OCCOc2no[n+]([O-])c2S(=O)(=O)c2ccccc2)C(C)C)C[C@H]1C(=C)CCl` [Example 5, 4-(2-((4-(2-((2-((1R,3R,4S)-3-(3-chloroprop-1-en-2-yl)-4-methyl-4-vinylcyclohexyl)allyl)(isopropyl)amino)ethyoxyl)-4-oxobutanoyl)oxy)ethyoxyl)-3-(phenylsulfonyl)-1,2,5-oxadiazole 2-oxide], the inhibition at 1 µM with U87MG (Homo sapiens, U-87 MG, 1 μM) turned out to be 47.1 ± 0.9%; in the data set on SW620 (Homo sapiens, SW-620, 1 μM), 33 ± 2.5%; in the data set on NCI-H520 (Homo sapiens, 1 μM) it was 44.2 ± 1.3%. Besides, the IC50 with U87MG (Homo sapiens, U-87 MG) was 369 ± 25 nM. In addition, the NO-release concentrations turned out to be 0.59 µM in data set [2] (5 min); 41.61 µM in data set [2] (10 min); 48.58 µM in data set [2] (20 min); 2.57 µM in data set [2] (30 min); 5.58 µM in data set [2] (60 min); 9.22 µM in data set [2] (90 min). Besides, the NO-release concentrations in data set [2] (120 min) was 13.64 µM.
